Entries after “also recorded” stand apart in the source; their conditions may differ.
Legend:
G795A iPSC-microglia [1] = assay: Caspase 3/7 cell death assay (IncuCyte, 24 h imaging); format: cell-based, human; details: 250 nM, 500 nM, 1 μm, versus DMSO control
Source text: (§1) FIGS. 4A, 4B, 4C, 4D, and 4E show human stem cell-derived microglia are also susceptible to and killed by CSF1R inhibition in vitro. […] Images captured on Incucyte S3 live-cell imager. […] Images captured on Incucyte S3 live-cell imager. […] Images captured on Incucyte S3 live-cell imager. […] Images captured on Incucyte S3 live-cell imager. […] For all panels, n=4 images in six independent wells were quantified. Data represented as mean values±SEM.
(§2) Strategy 1: A crystal structure of the CSF1R receptor bound to an antagonist (PMID: 31434879) to predict amino acid substitutions that may sterically hinder the binding of CSF1R antagonists while not impairing the normal binding of ATP into the same binding pocket. The crystal structure of PLX5622 bound to human CSF1R was obtained and the ATP binding pocket was examined (FIG. 7A). Through molecular modeling single amino acid changes were predicted that would likely impair the binding of PLX5622 or PLX3397 or other CSF1R antagonists while not disrupting normal ATP binding to CSF1R. […] Other mutations could also be explored to prevent binding (FIG. 7D). […] The resulting iPSCs were then differentiated into microglia and exposed to varying concentrations of either PLX3397 or PLX5622. To detect microglial cell death (apoptosis) a caspase-3/7 fluorogenic reporter was used. […] FIG. 4F provided representative images of cell density (phase-contrast microscopy, 1st column) and fluorescent Caspase-3/7 activity (2nd column) across each dose of PLX3397 and PLX5622.
(§3) Resistance to each of the CSF1R inhibitors tested was quantified using a fluorogenic caspase 3/7 detector (Essen BioScience) and time-lapse imaging over 24 hours.
(§4) Cell death assay: iPS-microglia were plated at 70K cells per 96-well plate (6 wells per line per condition). At time 0, all microglia were treated with IncuCyte Caspase-3/7 Green Apoptosis Assay Reagent 1:1000. Cells were maintained in the described medium: fresh complete medium+0.1% DMSO, complete media+250 nM PLX3397, complete medium+500 nM PLX3397, complete medium+1 μm PLX3397, complete medium+250 nM PLX5622, complete medium+500 nM PLX5622, complete medium+1 μm PLX5622, complete medium+250 nM Edicotinib, complete medium+500 nM Edicotinib, complete medium+1 μm Edicotinib, complete medium+250 nM BLZ945, complete medium+500 nM BLZ945, complete medium+1 μm BLZ945. Four 20× images per well were collected every hour for 24 hours. Using IncuCyte 2020B software, image masks for phase confluence (visually gated out apoptotic cells) as well as caspase 3/7 signal (green) were generated. Graphs display caspase normalized to phase confluence, completed with 3 lines: WT, G795A, G795C (see FIGS. 4A, 4B, 4C, 4D, and 4E).

G795C iPSC-microglia = assay: as above; format: cell-based, human; details: 250 nM, 500 nM, 1 μm, versus DMSO control
Source text: as §1, §2, §3, §4

WT microglia [2] = assay: as above; format: cell-based, human; details: 250 nM, 500 nM, 1 μm, versus DMSO control
Source text: as §1, §2, §3, §4

G795A iPSC-microglia [3] = assay: LIVE/DEAD viability/cytotoxicity assay; format: cell-based, human; details: 500 nM or 1 uM, 24 hours
Procedure: (§5) FIGS. 5A and 5B show G795A iPSC-derived microglia are resistant to CSF1R antagonist-induced cell death. As cells can die from processes other than caspase-mediated apoptosis, it is important to determine whether the G795A mutation provides a more broad-based resistance to any form of cell death induced by CSF1R antagonists. Therefore, G795A and wild-type (WT) iPSC-microglia were treated for 24 hours with either 500 nM (FIG. 5A) or 1 uM (FIG. 5B) of DMSO vehicle control or one of four CSF1R antagonists; PLX3397, PLX5622, Edicotinib, and BLZ945. The percent of live versus dead cells was then quantified using a two-color viability/cytotoxicity approach (Thermo L3224; LIVE/DEAD™ Viability/Cytotoxicity Kit). Very few dead microglia are observed 24 hours after treatment with DMSO. […] Live cells are denoted with a circle.

[4] = system: wild-type (WT) iPSC-microglia; assay: LIVE/DEAD viability/cytotoxicity assay; format: cell-based, human; details: 500 nM or 1 uM, 24 hours
Procedure: as §5

G795A xMGs = assay: Xenotransplanted human microglia in adult mice, PLX3397 chow, immunohistochemistry; format: in vivo; details: 600 mg/kg in rodent chow ad libitum, 4 weeks
Source text: (§6) FIGS. 11A, 11B, 110, 11D, 11E, 11F, 11G, 11H, 11I, and 11J show G795A iPSC-derived microglia are resistant to CSF1R […] treatment and enable robust engraftment of human microglia within the adult mammalian brain. Xenotransplantation-compatible mice received bilateral stereotactic intrahippocampal injections of 500,000 iPSC-derived human microglia (xMGs) at 2-months of age. Mice received xMGs differentiated from either a homozygous CSF1R-resistant G795A human IPSO line or an isogenic unmodified Wad-Type human iPSC. At […], mice were treated with 600 mg/kg of PLX3397 in rodent chow ad libitum for 4 weeks duration. Mice were then sacrificed, and half-brains were examined by fluorescent immunohistochemistry and confocal microscopy.

wild-type human xMGs = assay: as above; format: in vivo; details: 600 mg/kg in rodent chow ad libitum, 4 weeks
Source text: as §6

[5] = system: CSF1R-G795A human iPSC-microglia; assay: Quantification of human iPSC-microglial engraftment (Ku80+/Iba1+) in adult hCSF1 mice; format: in vivo; details: after CSF1R-G795A iPSC-microglia transplantation, 600 mg/kg PLX3397 in food
Procedure: In contrast, when CSF1R-G795A iPSC-microglia transplantation is followed with treatment of mice for 10 days with PLX3397 containing mouse chow (600 mg/kg PLX3397 in food), the percent of human microglia increases to almost 25%. After 30 days of PLX3397 treatment (600 mg/kg PLX3397 in food), 90-95% of all microglia in the brain are human as evidenced by co-expression of Ku80 and IBA1. By transplanting CSF1R-G795A iPSC-microglia and varying the concentration and duration of CSF1R antagonist treatment either before, during, or after transplantation, one can control the degree of human iPSC-microglial engraftment.

MUT1 (G795A) microglia = assay: RNA-seq after 24-hour treatment versus DMSO; format: cell-based, human
Source text: (§7) FIGS. 2A, 2B, 2C, 2D, 2E, and 2F show selected CSF1R mutations have little effect on transcriptomic signature while simultaneously imparting resistance to PLX5622.

MUT2 (G795C) microglia = assay: RNA-seq after 24-hour treatment versus DMSO; format: cell-based, human
Source text: as §7

WT microglia [6] = assay: RNA-seq after 24-hour treatment versus DMSO; format: cell-based, human; details: FDR≤0.05, log 2(FC)≥±1
Source text: as §7

| SMILES | caspase 3/7 levels (cell death, apoptosis) (G795A iPSC-microglia [1]) | caspase 3/7 levels (cell death, apoptosis) (G795C iPSC-microglia) | caspase 3/7 levels (cell death, apoptosis) (WT microglia [2]) | cell death (live versus dead cells) (G795A iPSC-microglia [3]) | cell death (live versus dead cells) [4] | survival and expansion of transplanted xMGs in the brain (G795A xMGs) | survival of transplanted xMGs in the brain (wild-type human xMGs) | percent of human microglia (Ku80+/Iba1+) of total microglia ([5]; 10 days) [%] | percent of human microglia (Ku80+/Iba1+) of total microglia ([5]; 30 days) | transcriptomic alterations versus DMSO-treated cells (MUT1 (G795A) microglia) | transcriptomic alterations versus DMSO-treated cells (MUT2 (G795C) microglia) | transcriptomic alterations versus DMSO-treated cells (WT microglia [6]) |
| --- | --- | --- | --- | --- | --- | --- | --- | --- | --- | --- | --- | --- |
| CNC(=O)c1cc(Oc2ccc3nc(N[C@@H]4CCCC[C@H]4O)sc3c2)ccn1 [BLZ945] | no significant increase in caspase levels | no significant increase in caspase levels | significant levels of increased caspase | little-to-no cell death | substantial cell death |  |  |  |  |  |  |  |
| CC1(C)CC=C(c2nc(C3CC(C)(C)OC(C)(C)C3)ccc2NC(=O)c2nc(C#N)c[nH]2)CC1 [Edicotinib] | no significant increase in caspase levels | no significant increase in caspase levels | significant levels of increased caspase | little-to-no cell death | substantial cell death |  |  |  |  |  |  |  |
| FC(F)(F)c1ccc(CNc2ccc(Cc3c[nH]c4ncc(Cl)cc34)cn2)cn1 [PLX3397] | complete resistance to cell death; also recorded: no significant increase in caspase levels | complete resistance to cell death; also recorded: no significant increase in caspase levels | robust dose-dependent induction of apoptosis; also recorded: significant levels of increased caspase | little-to-no cell death | substantial cell death | proliferate and expand | only a handful of wild-type human xMGs survive | ~25 | 90-95% |  |  |  |
| COc1ncc(F)cc1CNc1ccc(Cc2c[nH]c3ncc(C)cc23)c(F)n1 [PLX5622] | complete resistance to cell death; also recorded: no significant increase in caspase levels | complete resistance to cell death; also recorded: no significant increase in caspase levels | robust dose-dependent induction of apoptosis; also recorded: significant levels of increased caspase | little-to-no cell death | substantial cell death |  |  |  |  | failed to significantly alter gene expression | failed to significantly alter gene expression | induced significant transcriptomic alterations |
